Measurements reported in ChEMBL document CHEMBL1145849, “QSAR and the rational design of long-acting dual D2-receptor/beta 2-adrenoceptor agonists” (J Med Chem, 2003).

What was measured:
physchem [1] = experiment: physchem
Description: Ionization constant (pKa)

[2] = target: Beta-2 adrenergic receptor (Cavia porcellus) (UniProt Q8K4Z4)
Description: In vitro beta-2 duration was determined using electrically stimulated guinea-pig isolated trachea superfusion system

[3] = target: Beta-2 adrenergic receptor (Cavia porcellus) (UniProt Q8K4Z4); conditions: Trachea
Description: Beta-2-adrenoceptor potency was determined in rings of guinea-pig isolated trachea

physchem [4] = conditions: octanol/water, pH 7.4, logD

Chain of Beta-2 adrenergic receptor (Cavia porcellus) (Q8K4Z4 whole entry, looked up): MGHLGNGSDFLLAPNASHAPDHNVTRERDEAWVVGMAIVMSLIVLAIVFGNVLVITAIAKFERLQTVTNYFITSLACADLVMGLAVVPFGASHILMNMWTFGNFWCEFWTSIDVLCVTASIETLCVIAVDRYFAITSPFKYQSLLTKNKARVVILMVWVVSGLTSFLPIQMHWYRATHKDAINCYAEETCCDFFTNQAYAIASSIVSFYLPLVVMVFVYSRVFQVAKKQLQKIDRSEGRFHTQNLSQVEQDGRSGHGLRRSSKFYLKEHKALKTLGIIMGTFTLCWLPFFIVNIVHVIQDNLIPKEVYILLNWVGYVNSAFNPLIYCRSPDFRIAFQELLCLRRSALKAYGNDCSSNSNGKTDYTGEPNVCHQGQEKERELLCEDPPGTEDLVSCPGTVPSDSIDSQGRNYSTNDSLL

pKa (physchem [1]) | Beta2 duration [2] [min] | p[A]50 [3] | logD (physchem [4]) | Structure (SMILES)
> 8 | 60 | 7.01 | 1.26 | O=C(NCCCCCCNCCc1ccc(O)c2nc(O)sc12)Nc1ccccc1
> 8 | > 180 | – | 2.59 | Cc1cc(C)cc(CCOCCS(=O)(=O)NCCNCCc2ccc(O)c3nc(O)sc23)c1
< 8 | 40 | – | 2 | N#Cc1ccc(CCOCCCS(=O)(=O)CCNCCc2ccc(O)c3nc(O)sc23)cc1
> 8 | – | – | – | CN(CCc1ccc(O)c2[nH]c(=O)sc12)CCN(C)C(=O)CCOCCc1ccccc1
– | 116 | 8.29 | – | CN(CCNCCc1ccc(O)c2nc(O)sc12)C(=O)CCOCCc1ccccc1
< 8 | 40 | – | 1.44 | Cc1ncsc1CCOCCCS(=O)(=O)CCNCCc1ccc(O)c2nc(O)sc12
> 8 | > 180 | – | – | CCN(CCCOCCOCCc1ccccc1)CCc1ccc(O)c2nc(O)sc12
> 8 | > 180 | 7.78 | – | Oc1nc2c(O)ccc(CCNCCCCCCOCCc3nccs3)c2s1
< 8 | 160 | – | 2.86 | O=S(=O)(CCCOCCc1cc2ccccc2o1)CCNCCc1ccc(O)c2nc(O)sc12
< 8 | 40 | – | 1.56 | Cc1ccc(CCOCCCS(=O)(=O)CCNCCc2ccc(O)c3nc(O)sc23)nc1
> 8 | > 180 | – | 2.07 | Cc1ccc(CCOCCNS(=O)(=O)CCCNCCc2ccc(O)c3nc(O)sc23)cc1
> 8 | > 180 | 8.36 | 2.86 | Oc1nc2c(O)ccc(CCNCCSCCCOCCc3ccccc3)c2s1
< 8 | 32 | 8.65 | 1.91 | O=S(=O)(CCCOCCc1ccc(O)cc1)CCNCCc1ccc(O)c2nc(O)sc12
> 8 | > 180 | 7.13 | 3.44 | CC(C)(CNCCc1ccc(O)c2nc(O)sc12)CSCCOCCc1ccccc1N
> 8 | 69 | 7.51 | 1.22 | O=S(=O)(CCOCCc1ccccc1)NCCCNCCc1ccc(O)c2nc(O)sc12
> 8 | > 180 | 7.77 | 3.26 | Oc1nc2c(O)ccc(CCNCCC(F)(F)CCCOCCc3ccccc3)c2s1
< 8 | 77 | 6.73 | 2.32 | O=[N+]([O-])c1ccc(CCOCCCS(=O)(=O)CCNCCc2ccc(O)c3nc(O)sc23)cc1
> 8 | > 180 | 7.27 | 3.61 | Oc1nc2c(O)ccc(CCNCCSCCCOCCCc3ccccc3)c2s1
> 8 | 75 | 7.32 | 0.83 | Oc1nc2c(O)ccc(CCNCCCSCCOCCc3ccccn3)c2s1
> 8 | > 180 | 7.4 | 3.36 | O=S(=O)(CCCOCCc1ccc(Br)cc1)CCNCCc1ccc(O)c2nc(O)sc12
> 8 | 18 | 7.88 | – | O=S(=O)(CCCNCCc1ccc(O)c2nc(O)sc12)CCNCCc1ccccc1
> 8 | 180 | – | 1.77 | O=S(=O)(CCCNCCc1ccc(O)c2nc(O)sc12)NCCSCCc1ccccc1
> 8 | > 180 | 7.06 | 2.11 | Oc1nc2c(O)ccc(CCNCCCSCCOCCOc3ccccc3)c2s1

pKa (physchem [1]) | Beta2 duration [2] [min] | p[A]50 [3] | logD (physchem [4]) | Structure (SMILES)
> 8 | 140 | 9.2 | – | NC(=O)Nc1ccc(CCOCCCCCCNCCc2ccc(O)c3nc(O)sc23)cc1
> 8 | 180 | – | 1.69 | O=S(=O)(CCOCc1cccc2ccccc12)NCCCNCCc1ccc(O)c2nc(O)sc12
> 8 | 72 | 7.4 | 1.11 | O=S(=O)(CCCNCCc1ccc(O)c2nc(O)sc12)NCCOCc1ccccc1
< 8 | 60 | – | 2.32 | C[C@@H](COCCCS(=O)(=O)CCNCCc1ccc(O)c2nc(O)sc12)c1ccccc1
> 8 | > 180 | 7.58 | – | CC(C)(CCCCOCCc1ccccc1N)CNCCc1ccc(O)c2nc(O)sc12
> 8 | 180 | – | 1.92 | O=S(=O)(CCCNCCc1ccc(O)c2nc(O)sc12)NCCOCCc1cccc(Cl)c1
> 8 | 150 | 8.63 | 1.91 | O=C(CCOCCCc1ccccc1)NCCNCCc1ccc(O)c2nc(O)sc12
> 8 | 150 | – | 1.57 | O=S(=O)(CCCNCCc1ccc(O)c2nc(O)sc12)NCCOCCc1ccc(F)cc1
< 8 | 160 | – | – | Cc1ccccc1CCOCCCS(=O)(=O)CCNCCc1ccc(O)c2nc(O)sc12
> 8 | > 180 | 7.03 | 1.73 | Oc1nc2c(O)ccc(CCNCCCOCCSCCc3ccccc3)c2s1
> 8 | > 180 | – | – | CN(CCCOCCOCCc1ccccc1)CCc1ccc(O)c2nc(O)sc12
> 8 | > 180 | 7 | – | Oc1nc2c(O)ccc(CCNCCCCCOCCCc3ccccc3)c2s1
> 8 | > 180 | 7.32 | – | Oc1nc2c(O)ccc(CCNCCCSCCCOCCc3ccccc3)c2s1
> 8 | 52 | 7.44 | 1.13 | O=S(=O)(CCCNCCc1ccc(O)c2nc(O)sc12)CCOCCOc1ccccc1
> 8 | > 180 | – | – | CCCN(CCCOCCOCCc1ccccc1)CCc1ccc(O)c2nc(O)sc12
> 8 | > 180 | – | – | Cc1cc(C)cc(CCOCNS(=O)(=O)CCCNCCc2ccc(O)c3nc(O)sc23)c1
< 8 | 67 | 7.92 | – | O=S(=O)(CCCOCCc1ccc(F)cc1)CCNCCc1ccc(O)c2nc(O)sc12
> 8 | > 180 | 8.42 | – | CC(C)(CCCCCOCCc1ccccc1)NCCc1ccc(O)c2nc(O)sc12
> 8 | > 180 | – | 2.22 | O=S(=O)(CCOCCCc1ccccc1)NCCNCCc1ccc(O)c2nc(O)sc12
> 8 | 60 | – | 1.24 | CN(CCCNCCc1ccc(O)c2nc(O)sc12)S(=O)(=O)CCOCCc1ccccc1
> 8 | > 180 | 8.39 | – | CC(C)(CCCCOCCc1cccc(N)c1)CNCCc1ccc(O)c2nc(O)sc12
> 8 | 180 | – | 1.83 | O=S(=O)(CCCOCCc1ccccc1)NCCNCCc1ccc(O)c2nc(O)sc12
< 8 | 120 | – | 2.68 | O=S(=O)(CCCOCCSc1ccccc1)CCNCCc1ccc(O)c2nc(O)sc12

pKa (physchem [1]) | Beta2 duration [2] [min] | p[A]50 [3] | logD (physchem [4]) | Structure (SMILES)
> 8 | 150 | – | 1.63 | CSc1cccc(CCOCCS(=O)(=O)CCCNCCc2ccc(O)c3nc(O)sc23)c1
> 8 | > 180 | 6.35 | – | CC(C)(CCCCOCCc1ccc([N+](=O)[O-])cc1)CNCCc1ccc(O)c2nc(O)sc12
> 8 | – | – | 1.52 | CN(CCNCCc1ccc(O)c2[nH]c(=O)sc12)C(=O)CCOCCc1ccccc1
> 8 | > 180 | 8.08 | – | CC(CCCCCOCCc1ccccc1)NCCc1ccc(O)c2nc(O)sc12 (stereo not drawn)
> 8 | 180 | – | 1.81 | C[C@@H](Cc1ccccc1)OCCCS(=O)(=O)CCNCCc1ccc(O)c2nc(O)sc12
> 8 | > 180 | 8.86 | – | CC(C)(CCCCOCCc1ccc(N)cc1)CNCCc1ccc(O)c2nc(O)sc12
< 8 | 40 | – | 1.34 | CS(=O)(=O)Nc1ccc(CCOCCCS(=O)(=O)CCNCCc2ccc(O)c3nc(O)sc23)cc1
> 8 | 109 | 8.12 | – | Oc1nc2c(O)ccc(CCNCCCCCCOCCc3ccccn3)c2s1
> 8 | > 180 | 9.03 | – | CC(C)(CCCCOCCc1ccc(O)cc1)CNCCc1ccc(O)c2nc(O)sc12
> 8 | > 180 | 9.4 | – | Nc1ccc(CCOCCCCCCNCCc2ccc(O)c3nc(O)sc23)cc1
> 8 | > 180 | 5.8 | – | Oc1nc2c(O)ccc(CCNCCCSCCOCCc3cccc4ccccc34)c2s1
< 8 | 60 | – | – | COc1ccc(CCOCCCS(=O)(=O)CCNCCc2ccc(O)c3nc(O)sc23)cc1
> 8 | 60 | – | 1.15 | O=S(=O)(CCCNCCc1ccc(O)c2nc(O)sc12)CCOCc1ccccc1
> 8 | 180 | – | 1.84 | O=S(=O)(CCCNCCc1ccc(O)c2nc(O)sc12)NCCOCCSc1ccccc1
> 8 | > 180 | 7.8 | – | Oc1nc2c(O)ccc(CCNCCCCCOCCc3ccccc3)c2s1
< 8 | 40 | – | – | O=S(=O)(CCCOCCNc1ccccc1)CCNCCc1ccc(O)c2nc(O)sc12
> 8 | > 180 | – | 2.41 | Cc1ccc(CCCOCCS(=O)(=O)CCCNCCc2ccc(O)c3nc(O)sc23)s1
> 8 | > 180 | 8.81 | – | Oc1ccc(CCOCCCCCCNCCc2ccc(O)c3nc(O)sc23)cc1
< 8 | 50 | – | 2.35 | O=S(=O)(CCCOCCc1nccc2ccccc12)CCNCCc1ccc(O)c2nc(O)sc12
– | > 180 | – | – | CN(CCc1ccc(O)c2nc(O)sc12)CCN(C)C(=O)CCOCCc1ccccc1
> 8 | > 180 | – | 2.62 | O=S(=O)(CCCNCCc1ccc(O)c2nc(O)sc12)NCCOCCc1cccc(C(F)(F)F)c1
